Results taken from article PMC12635197, “Discovery of first-in-class inhibitors of the TRF1:TIN2 protein:protein interaction by fragment screening” (Scientific Reports, 2025).
Values belong to the molecule of their own block, whether it stands above or below them.

Legend:
TRF1TRFH [1] = target: T1, TRF1TRFH (Homo sapiens, UniProt P54274); experiment: LO-NMR CPMG assay (relaxation-edited), singletons; format: binding; conditions: single experiment
T1 construct: encoding residues 47–268, UniProt identifier P54274-1; His6-MBP (TEV-cleavable) (N, cleaved yes); made in house; host or cells: E. coli BL21-CodonPlus(DE3)-RIL
T1 sequence (P54274 47-268): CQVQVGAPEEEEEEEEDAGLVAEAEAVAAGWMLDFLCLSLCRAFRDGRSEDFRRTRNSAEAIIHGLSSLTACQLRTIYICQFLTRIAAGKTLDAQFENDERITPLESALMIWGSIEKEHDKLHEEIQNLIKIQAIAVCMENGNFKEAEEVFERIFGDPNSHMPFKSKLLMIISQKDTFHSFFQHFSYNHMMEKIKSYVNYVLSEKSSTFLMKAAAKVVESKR
Description: We next used a LO-NMR CPMG assay to orthogonally validate XChem hits in solution, aiming to eliminate false positives and rank hit matter for follow-up studies. Compounds were tested as singletons and prepared in two samples containing either compound alone (sample 1) or compound + TRF1TRFH (sample 2).
The fragment screen by LO-NMR was carried out using conditions described previously, with some modifications. Fragments were dispensed in triplicate into a 384-well plate using an Echo 550 liquid handler to give a final ligand concentration of 250 µM (total sample volume of 40 µL). 40 µL of TRF1TRFH protein (in NMR buffer; 20 µM final protein concentration in the assay) were added to the ‘protein’ samples; 40 µL of TRF1TRFH protein and TIN2TBM peptide (21-mer, Ac-[…]-CONH2; 40 µM final concentration in the assay) were both added to the ‘competitor’ samples; 40 µL NMR buffer were added to the ‘compound-only’ samples. Solutions were transferred to 1.7-mm NMR tubes using a Bruker SamplePro Tube robotics system. ^1H NMR spectra were recorded on a Bruker AVIII 500 MHz spectrometer at 298 K, equipped with a 1.7-mm TXI probe, with samples in 1.7-mm SampleJET NMR tubes (Bruker). DMSO and water signals were dampened. A relaxation spin filter was applied at 400 ms. Data were processed using Bruker Topspin 4.0. Lines were broadened with LB = 3.0, and the baseline was corrected between 6.0 and 10.0 ppm.
The data were then analysed using the MNova Screen software. Only peaks between 5.5 and 9.5 ppm were considered. Peaks with a height of < 5% maximum peak height within the region of interest were considered noise, and the minimum matched peak level was set at > 51%. The relative peak intensity change (I) was calculated for all peaks in the 5.5–9.5 ppm region, for each compound, as described previously. The average integral for all peaks between 6.0 and 10.0 ppm was calculated, and the differences between compound-only, compound-plus-protein, and compound-plus-protein-plus-competitor samples were compared. The net recovery was calculated by subtracting the reduction in peak integral of the compound-plus-protein samples from the compound-plus-protein-plus-competitor samples.
For hit validation, relaxation-edited LO-NMR experiments were repeated as described above on single compounds instead of fragment cocktails.

TRF1TRFH [2] = target: T1, TRF1TRFH; experiment: Crystal soaking of TRF1TRFH crystals; conditions: soaking into TRF1TRFH crystals; Supplementary Table 1
Description: Attempts to soak TRF1TRFH crystals with the commercially available analogues of the XChem hit 5 were also unsuccessful. Only one slightly smaller analogue (22) could be soaked into TRF1TRFH crystals, albeit with an ambiguous binding mode. […] In the case of compound 5, we observed a hydrogen bond between the amino group of the fragment and a backbone carbonyl in the neighbouring protein chain (Fig. 2i). […] Additionally, the pocket normally occupied by the conserved phenylalanine residue of the TIN2 F-X-L-X-P motif was fully obstructed by a crystal contact with a TRF1TRFH copy in an adjacent asymmetric unit, further limiting the possibility of obtaining XChem hits outside of the leucine pocket.
TRF1TRFH crystals in the P3_121 space group were grown by sitting drop vapour diffusion in SWISSCI 3-drop plates using similar crystallisation conditions to those described previously. The total drop volume was 300 nL, consisting of 150 nL of TRF1TRFH (31.2 mg/mL) and 150 nL of reservoir solution (1% PEG8000, 100 mM MES pH 6.0, 1–12 mM Mg(OAc)2, 10–15% glycerol), whilst the reservoir volume was 35 µL. Crystallisation plates were set up using an SPT Labtech mosquito Xtal2 liquid handler. Cuboid-shaped crystals grew to their maximum size (300 μm across) within 24 h. Crystals were cryoprotected through the addition of 180 nL of 40% glycerol to the crystal drop prior to harvesting, giving a final glycerol concentration of […] (accounting for the glycerol already in the crystallisation conditions). The crystals were then flash-frozen in liquid nitrogen, and data were collected at the Diamond Light Source beamlines I04 and I04-1 and processed automatically using the Xia2 Dials pipeline[53],[54]. The TRF1TRFH structure was solved by molecular replacement in Phaser MR[55] within CCP4[56] using the previously published TRF1TRFH structure as a search model (PDB: 1H6O)[31], after having first stripped the search model of solvent molecules and ligands. Structure refinement was done using Refmac[57] and Buster[36], and model correction and building was done using Coot 0.9.6[35].
The DSi-Poised library (768 fragment, Enamine)[32], the EUbOPEN DSiP extension library (108 fragments) and the FragLite library (31 fragments)[33] were screened against TRF1TRFH crystals. Compounds at 500 mM in DMSO stocks were dispensed into selected crystal drops as singletons using an Echo 550 liquid handler to give a final concentration of 50 mM (10% DMSO final concentration). After incubation for 1 h at 20 °C, 180 nL of glycerol (40% stock, final drop concentration 28.8–32.5%) were added to each drop immediately prior to crystal harvesting and flash-freezing in liquid nitrogen.
Data were collected on the I04-1 beamline at Diamond Light Source. […]

[3] = Fragment solubility assay (quantitative 1H NMR); format: physicochemical; conditions: Supplementary Table 1
Description: Aqueous solubility test samples were prepared by adding 3.6 µL compound (50 mM stock in 100% DMSO-d6) to 176.4 µL NMR buffer in a microcentrifuge tube. The samples were incubated overnight and transferred to a 3-mm NMR tube (Bruker, Part No. Z112272). ^1H NMR spectra were recorded, with the DMSO and water signals dampened. 1 mM caffeine (Sigma, C1778 in PBS (pH 7.4) with 1% DMSO-d6) was used as a standard to quantify the ligand signals and determine the concentration of samples.
NMR data were collected on a Bruker Avance Neo 600-MHz spectrometer equipped with a 5 mm TCI-CryoProbe. The ^1H spectrum was referenced to the internal deuterated solvent. The operating frequency for ^1H was 600 MHz. All NMR data were acquired at the temperature of 298 K. All data were acquired and processed using Bruker Topspin 4.0. The quantitative ^1H-NMR spectrum was acquired using a Bruker standard 1D lc1pngppsf2 pulse sequence with 32 scans. The sweep width was 6.2 ppm with O1P set to 8.8 ppm, and the FID contained 16k time-domain data points. Relaxation delay was set to 20 s. Water signal was suppressed.

[4] = target: T2, (StrepII)2-TEV-tagged TIN2, subunit of recombinant shelterin (UniProt Q9BSI4-1 1-451); experiment: mass photometry; SEC-purified shelterin without compound; complex of around 700 kDa; 50 mM HEPES-NaOH pH 8.0, 300 mM NaCl; conditions: both partners purified
T2 construct: TIN2, gene NM_001099274.1, codon-optimised; a TEV site lies between tag and protein; The separately made control protein is called TIN2L; The discussion says that the complex carries a short peptidic tag on TIN2; source: Sf9, co-expressed with the other shelterin subunits (MultiBac baculovirus), purified (StrepTrap, serial SEC)
T2 sequence (looked up): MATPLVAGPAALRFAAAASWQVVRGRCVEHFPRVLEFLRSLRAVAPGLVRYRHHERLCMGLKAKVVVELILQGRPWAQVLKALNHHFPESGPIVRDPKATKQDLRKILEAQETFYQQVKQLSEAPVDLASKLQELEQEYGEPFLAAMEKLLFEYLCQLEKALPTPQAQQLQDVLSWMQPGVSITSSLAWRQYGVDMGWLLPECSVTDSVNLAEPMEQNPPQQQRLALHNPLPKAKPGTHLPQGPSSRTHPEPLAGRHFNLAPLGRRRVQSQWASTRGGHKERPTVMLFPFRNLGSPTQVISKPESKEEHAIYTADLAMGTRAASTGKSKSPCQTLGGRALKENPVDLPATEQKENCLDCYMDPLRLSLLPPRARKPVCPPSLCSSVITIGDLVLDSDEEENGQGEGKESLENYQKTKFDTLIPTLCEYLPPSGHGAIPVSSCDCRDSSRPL

B1: POT1, subunit of recombinant shelterin (natural protein, UniProt Q9NUX5-1 1-634, looked up)
chain: MSLVPATNYIYTPLNQLKGGTIVNVYGVVKFFKPPYLSKGTDYCSVVTIVDQTNVKLTCLLFSGNYEALPIIYKNGDIVRFHRLKIQVYKKETQGITSSGFASLTFEGTLGAPIIPRTSSKYFNFTTEDHKMVEALRVWASTHMSPSWTLLKLCDVQPMQYFDLTCQLLGKAEVDGASFLLKVWDGTRTPFPSWRVLIQDLVLEGDLSHIHRLQNLTIDILVYDNHVHVARSLKVGSFLRIYSLHTKLQSMNSENQTMLSLEFHLHGGTSYGRGIRVLPESNSDVDQLKKDLESANLTANQHSDVICQSEPDDSFPSSGSVSLYEVERCQQLSATILTDHQYLERTPLCAILKQKAPQQYRIRAKLRSYKPRRLFQSVKLHCPKCHLLQEVPHEGDLDIIFQDGATKTPDVKLQNTSLYDSKIWTTKNQKGRKVAVHFVKNNGILPLSNECLLLIEGGTLSEICKLSNKFNSVIPVRSGHEDLELLDLSAPFLIQGTIHHYGCKQCSSLRSIQNLNSLVDKTSWIPSSVAEALGIVPLQYVFVMTFTLDDGTGVLEAYLMDSDKFFQIPASEVLMDDDLQKSVDMIMDMFCPPGIKIDAYPWLECFIKSYNVTNGTDNQICYQIFDTTVAEDVI
notes: POT1 (shelterin subunit), gene NM_015450, codon-optimised
- stoichiometry N [4]: 1 POT1 per TIN2

B4: TRF2 (telomeric repeat-binding factor 2), subunit of recombinant shelterin (natural protein, UniProt Q15554-3 1-542, looked up)
chain: MAAGAGTAGPASGPGVVRDPAASQPRKRPGREGGEGARRSDTMAGGGGSSDGSGRAAGRRASRSSGRARRGRHEPGLGGPAERGAGEARLEEAVNRWVLKFYFHEALRAFRGSRYGDFRQIRDIMQALLVRPLGKEHTVSRLLRVMQCLSRIEEGENLDCSFDMEAELTPLESAINVLEMIKTEFTLTEAVVESSRKLVKEAAVIICIKNKEFEKASKILKKHMSKDPTTQKLRNDLLNIIREKNLAHPVIQNFSYETFQQKMLRFLESHLDDAEPYLLTMAKKALKSESAASSTGKEDKQPAPGPVEKPPREPARQLRNPPTTIGMMTLKAAFKTLSGAQDSEAAFAKLDQKDLVLPTQALPASPALKNKRPRKDENESSAPADGEGGSELQPKNKRMTISRLVLEEDSQSTEPSAGLNSSQEAASAPPSKPTVLNQPLPGEKNPKVPKGKWNSSNGVEEKETWVEEDELFQVQAAPDEDSTTNITKKQKWTVEESEWVKAGVQKYGEGNWAAISKNYPFVNRTAVMIKDRWRTMKRLGMN
notes: TRF2, gene NM_005652.4, codon-optimised
- stoichiometry N [4]: 4 TRF2 per TIN2

Further lines, results first:

- CPMG reduction (TRF1TRFH [1]; average peak intensity reduction on addition of TRF1TRFH, 250 µM ligand, 20 µM protein): 25%
- CPMG recovery (TRF1TRFH [1]; net recovery of peak intensity on addition of TIN2TBM peptide (40 µM) to compound plus protein): 0%
- Crystal structure (TRF1TRFH [2]): Yes
- Aq. Sol. [3]: 580 µM
Molecule: COc1ccc2sc(N)nc2c1 [Compound 20]

- stoichiometry N [4]: 1 TPP1 per TIN2
B2: TPP1, subunit of recombinant shelterin (natural protein, UniProt Q96AP0 1-458, looked up)
chain: MAGSGRLVLRPWIRELILGSETPSSPRAGQLLEVLQDAEAAVAGPSHAPDTSDVGATLLVSDGTHSVRCLVTREALDTSDWEEKEFGFRGTEGRLLLLQDCGVHVQVAEGGAPAEFYLQVDRFSLLPTEQPRLRVPGCNQDLDVQKKLYDCLEEHLSESTSSNAGLSLSQLLDEMREDQEHQGALVCLAESCLTLEGPCTAPPVTHWAASRCKATGEAVYTVPSSMLCISENDQLILSSLGPCQRTQGPELPPPDPALQDLSLTLIASPPSSPSSSGTPALPGHMSSEESGTSISLLPALSLAAPDPGQRSSSQPSPAICSAPATLTPRSPHASRTPSSPLQSCTPSLSPRSHVPSPHQALVTRPQKPSLEFKEFVGLPCKNRPPFPRTGATRGAQEPCSVWEPPKRHRDGSAFQYEYEPPCTSLCARVQAVRLPPQLMAWALHFLMDAQPGSEPTPM
notes: TPP1 (shelterin subunit), gene BC016904.1, codon-optimised

- stoichiometry N [4]: 4 RAP1 per TIN2
B3: RAP1, subunit of recombinant shelterin (natural protein, UniProt Q9NYB0 1-399, looked up)
chain: MAEAMDLGKDPNGPTHSSTLFVRDDGSSMSFYVRPSPAKRRLSTLILHGGGTVCRVQEPGAVLLAQPGEALAEASGDFISTQYILDCVERNERLELEAYRLGPASAADTGSEAKPGALAEGAAEPEPQRHAGRIAFTDADDVAILTYVKENARSPSSVTGNALWKAMEKSSLTQHSWQSLKDRYLKHLRGQEHKYLLGDAPVSPSSQKLKRKAEEDPEAADSGEPQNKRTPDLPEEEYVKEEIQENEEAVKKMLVEATREFEEVVVDESPPDFEIHITMCDDDPPTPEEDSETQPDEEEEEEEEKVSQPEVGAAIKIIRQLMEKFNLDLSTVTQAFLKNSGELEATSAFLASGQRADGYPIWSRQDDIDLQKDDEDTREALVKKFGAQNVARRIEFRKK
notes: RAP1 (TRF2-associated shelterin subunit), gene NM_018975.3, codon-optimised
